Data reported in publication PMC9728906 (2022).

Tests used:
[1] = system: human telomeric G-quadruplex DNA, AG3(TTAGGG)3 (DNA, G4) AGGGTTAGGGTTAGGGTTAGGG; assay: CD melting at 293 nm; settings: 100 mM KCl; 10 mM Tris-HCl, 1 mM Na2EDTA, pH 7.4, 10% ethylene glycol; equimolar 3.93 µM compound and DNA (1:1)
[2] = system: human telomeric G-quadruplex DNA, AG3(TTAGGG)3 (DNA, G4) AGGGTTAGGGTTAGGGTTAGGG; assay: fluorescence titration, Scatchard, two-line linear fit; settings: 100 mM KCl; 10 mM Tris-HCl, 1 mM Na2EDTA, pH 7.4, ≤10% ethylene glycol; 5 µM compound; site 1 of 2
[3] = system: fluorescein-labelled telomeric G-quadruplex DNA (DNA, G4) AGGGTTAGGGTTAGGGTTAGGG; assay: fluorescein fluorescence quenching; settings: 100 mM KCl; 10 mM Tris-HCl, 1 mM Na2EDTA, pH 7.4; 2 µM DNA; more than 90% quenching
[4] = system: human telomeric G-quadruplex DNA, AG3(TTAGGG)3 (DNA, G4) AGGGTTAGGGTTAGGGTTAGGG; assay: fluorescence titration, modified Scatchard, non-linear fit (r versus Cf); settings: 100 mM KCl; 10 mM Tris-HCl, 1 mM Na2EDTA, pH 7.4, ≤10% ethylene glycol; 5 µM compound; average over sites

| ΔTm [1] [°C] | K1 [2] [M⁻¹] | binding [3] | K [4] [M⁻¹] | SMILES |
| --- | --- | --- | --- | --- |
| 9.6 | 1.55e+07 | yes | 700000 | COc1ccc(CCCn2ncc3c2nc(N)n2nc(-c4ccco4)nc32)cc1 |
| 9.9 | 1.3e+08 | yes | 2.65e+06 | CN(C)c1cc2c(Nc3ccc4c(cnn4Cc4ccccc4)c3)ncnc2cn1 |
